Assay results taken from patent US11788147B2, “Markers of triple-negative breast cancer and uses thereof” (Vanderbilt University, priority 2011, dated 2023).
Where two headings read alike, the source gives them in different places. Each block holds one molecule with its values, some of them ahead of it.

How the values were obtained:
[1] = test system: mesenchymal-like (M and MSL) TNBC cell lines; assay: Cell proliferation/viability assay (alamarBlue) and IC50 determination; type: cell-based, human; settings: 72 hours
Experimental: (§1) Cell proliferation/viability assays and IC50 determinations. All cell lines and culture conditions used can be found in Supplemental Methods (Table 5). Short tandem repeat (STR) DNA fingerprinting analysis was performed on all TNBC cell lines used in this study (Cell Line Genetics). […] Breast cancer cell lines and HMECs were seeded (3,000-10,000 cells) in quadruplicate wells in 96-well plates. […] Viability was determined from measuring fluorescent intensity after metabolic reduction of alamarBlue in the presence/absence of the drug after 72 hours. Viability assays were performed in triplicate, and replicates were normalized to untreated wells. […] For analysis of cell-line drug assays, data generated from the different cell lines representative of TNBC subtypes were compared using the nonparametric Mann-Whitney U test. All analyses and graphic representations were performed using Prism software (version 4.0c; GraphPad Software), and values are represented as the mean±SEM.

[2] = test system: basal-like (BL1 and BL2) TNBC cell lines; assay: as above; type: cell-based, human
Experimental: (§2) Cell proliferation/viability assays and IC50 determinations. All cell lines and culture conditions used can be found in Supplemental Methods (Table 5). Short tandem repeat (STR) DNA fingerprinting analysis was performed on all TNBC cell lines used in this study (Cell Line Genetics). […] Breast cancer cell lines and HMECs were seeded (3,000-10,000 cells) in quadruplicate wells in 96-well plates. […] Medium was then replaced with either fresh medium (control) or medium containing half-log serial dilutions of the following drugs: 0.3-30 μM olaparib (ChemieTek), 0.3-30 μM veliparib (ChemieTek), 1-100 μM bicalutamide (IPR Pharmaceutical), 0.3-30 μM cisplatin (APP Pharmaceutical), 3-300 nM NVP-BEZ235 (Chemdea), 10-1000 nM 17-DMAG (ChemieTek), and 0.1-10 μM dasatinib (LC Laboratories). Viability was determined from measuring fluorescent intensity after metabolic reduction of alamarBlue in the presence/absence of the drug after 72 hours. Viability assays were performed in triplicate, and replicates were normalized to untreated wells. […] For analysis of cell-line drug assays, data generated from the different cell lines representative of TNBC subtypes were compared using the nonparametric Mann-Whitney U test. All analyses and graphic representations were performed using Prism software (version 4.0c; GraphPad Software), and values are represented as the mean±SEM.

[3] = test system: LAR TNBC cell lines; assay: as above; type: cell-based, human; settings: 72 hours
Experimental: as §2

[4] = test system: mesenchymal-like TNBC cell lines; assay: Cell proliferation/viability assay and IC50 determination (Example 3); type: cell-based, human; settings: 72 hours; basal-like, mesenchymal-like and normal cells compared
Experimental: Cell proliferation/viability assays and IC50 determinations. All cell lines were maintained in culture as previously described herein. Breast cancer cell lines and HMECs were seeded (3,000-10,000 cells) in quadruplicate wells in 96-well plates. Media was then replaced with either fresh media (control) or media containing half-log serial dilutions of the following drugs: Sorafenib, OSi-906, BMS-754807 and PF2341066 purchased from Selleck Chemicals (Houston, TX) Viability was determined from measuring fluorescent intensity after metabolic reduction of Alamar Blue in the presence/absence of drug after 72 hours. Viability assays were performed in triplicate and replicates were normalized to untreated wells. Inhibitory concentration (IC50) values were determined after double-log transformation of dose response curves.

[5] = test system: activated caspase 3/7 in AR-positive TNBC cell lines; assay: Caspase 3/7 activity (Caspase-Glo); type: cell-based, human; settings: 48 h; ADR 3 μM, bicalutamide 50 μM, GDC-0941 3 μM, GDC-0980 1 μM
Experimental: Cell lines were seeded in triplicate in 96-well plates. Media was removed and replaced with media containing vehicle (control) or indicated drugs. After 48 hrs, apoptosis was determined by measuring luciferase from activated caspase 3/7 upon addition of Caspase-Glo reagent (Promega, Madison, WI). Relative levels of caspase activity were normalized to viable cell number determined by metabolic reduction of Alamar blue.

[6] = test system: p-AKT, p-S6 and AR in AR-expressing TNBC cell lines; assay: Immunoblot analysis of the PI3K/mTOR pathway and AR; type: cell-based, human; settings: for activated AKT: 24 h or 48 h
Experimental: Immunoblot analysis was performed on cell lystates from untreated cells or cells treated alone or in combination with CDX, GDC-0941 and GDC-0980 to evaluate attenuation of the PI3K/mTOR pathway. […] Cells were trypsinized, lysed and relative protein expression was determined by Western blot as previously described (JCI reference) with the following antibodies; the AR polyclonal antibody, SC-N20 (Santa Cruz Biotechnology), pS[…]/236 (Cell Signaling #4856), S6 (Cell Signaling #2317), pAKT-5473 (Cell Signaling #9271), AKT (Cell Signaling #9272), PARP (Cell Signaling #9542) and GAPDH (Millipore).

[7] = test system: CAL-148, MFM-223 and MDA-MB-453 cells; assay: 3-D forced suspension viability assay; type: cell-based, human; settings: increasing doses, alone, 72 h; to a lesser degree than in 2-D
Experimental: CAL-148, MFM-223 and MDA-MB-453 cells were plated (10,000 cells/well) in quadruplicate into 96-well plates coated with 0.9% agarose diluted in corresponding media. Following 5 d of growth, cells were then treated with increasing half-log concentrations of GDC-0941 (10-3000 nM), GDC0980 (1 nM −300 nM), BKM120 (10 nM-3000 nM) and NVP-BEZ235 (1 nM-300 nM) alone or in combination with 25 μM bicalutamide (CDX) for an additional 72 h, upon which cells were imaged and viability determined by Alamar blue.

[8] = test system: AR-expressing TNBC cell lines; assay: Viability of AR-expressing TNBC cell lines, PI3K inhibitors alone or with bicalutamide (2-D); type: cell-based, human; settings: alone, 72 h
Experimental: All cell lines were maintained in culture as previously described (JCI ref). Breast cancer cell lines and HMECs were seeded (3,000-10,000 cells) in quadruplicate wells in 96-well plates. […] Viability was determined from measuring fluorescent intensity after metabolic reduction of Alamar Blue in the presence/absence of drug after 72 hours. Viability assays were performed in triplicate and replicates were normalized to untreated wells.

[9] = test system: MDA-MB-453 cells; assay: Sub-G1 (sub 2N DNA) fraction by FACs analysis; type: cell-based, human
Experimental: FIGS. 31A-31B: Combined inhibition of AR and PI3K increases apoptotic cell death in AR+TNBC cell lines. (31A) Bar graphs display relative caspase 3/7 activity (RLU) normalized to viable cell number 48 hrs after treatment with vehicle, positive control (3 μM adriamycin, ADR), 50 μM bicalutamide (CDX) and 3 μM GDC-0941 or 1 μM GDC-0980 alone or in combination with CDX. (31B) Histograms show representative cell cycle analysis of MDA-MB-453 cells treated with similar conditions as above. Indicated percentages represent the fraction of hypodiploid DNA (sub-G1), indicative of late stage apoptotic DNA fragmentation.
In addition to caspase activation, the percentage of sub 2N DNA (sub-G1)-containing cells (indicative of late stage apoptotic DNA fragmentation) was quantitated by FACs analysis. […] Therefore, the decreased viability of AR-positive TNBC cell lines treated with a combination of AR and PI3K inhibitors can be, in part, attributed to apoptosis.

[10] = test system: CAL-148 and MDA-MB-453 xenograft tumors; assay: Xenograft tumor studies (Example 2); type: in vivo, mice; settings: single agent alone; bicalutamide 100 mg/kg/d, GDC0980 7.5 mg/kg/d, NVP-BEZ235 50 mg/kg/d p.o.
Experimental: Five-week-old female athymic nude-Foxnlnu mice (Harlan Sprague-Dawley) were injected (s.c.) with either ˜4×10^6 (CAL-148) or ˜10×10^6 (MDA-MB-453) cells suspended in media (200 μL) into each flank using a 22-gauge needle. Once tumors reached a volume of 25-50 mm^3, mice were randomly allocated to treatment or vehicle arms. Treatments included bicalutamide p.o. (100 mg/kg/d), GDC0980 p.o. (7.5 mg/kg/d) in 5% DMSO, 0.5% carboxymethyl cellulose (MCT) or NVP-BEZ235 p.o. (50 mg/kg/d) in 0.5% MCT or the combination of bicalutamide and either GDC-0980 or NVP-BEZ235 according to the above concentrations. Tumor diameters were serially measured at the indicated times with digital calipers and tumor volumes were calculated as width^2×length/2.

[11] = test system: TNBC cell lines; assay: Cell proliferation/viability assay (alamarBlue), panel of TNBC cell lines (Example 1); type: cell-based, human
Experimental: as §1

[12] = test system: SUM185PE, CAL-148, CAL-51 and SUM159PT xenograft tumors; assay: Xenograft tumor studies (Example 1), PIK3CA-mutant lines; type: in vivo, mice; settings: NVP-BEZ235 per oral 50 mg/kg/d, approximately 3 weeks
Experimental: Xenograft tumor studies. Five-week-old female athymic nude-Foxnlnu mice (Harlan Sprague-Dawley) were injected (s.c.) with either approximately 5×10^6 (CAL-51, HCC1806, MDA-MB-468, and SUM185PE) or approximately 10×10^6 (CAL-148 and SUM159PT) cells suspended in medium (200 μl) into each flank using a 22-gauge needle. […] Once tumors reached a volume of 25-50 mm^3, mice were randomly allocated to treatment or vehicle arms. Treatments included bicalutamide per oral (100 mg/kg/d), cisplatin i.p. (8 mg/kg/wk), or NVP-BEZ235 per oral (50 mg/kg/d) in 1:9 N-methylpyrolidone: PEG300. Tumor diameters were serially measured at the indicated times with digital calipers, and tumor volumes were calculated as width^2×length/2. Data points reflect the means and SEM for 16 tumors per treatment.

[13] = test system: BRCA2-mutant cell line HCC1599; assay: Cell proliferation/viability assay (alamarBlue) and IC50 determination; type: cell-based; settings: Homo sapiens, 72 hours, viability
Experimental: as §2

[14] = test system: BRCA1-null cell line HCC1937; assay: as above; type: cell-based; settings: Homo sapiens, 72 hours, viability
Experimental: as §2

[15] = test system: BRCA1-mutant MDA-MB-436 cell line; assay: as above; type: cell-based; settings: Homo sapiens, 72 hours, viability
Experimental: as §2

[16] = 72 hours, read-out: average IC50

Structure (SMILES): CO[C@H]1/C=C\C=C(/C)C(=O)NC2=CC(=O)C(NCCN(C)C)=C(C[C@@H](C)C[C@H](OC)[C@H](O)[C@@H](C)/C=C(\C)[C@@H]1OC(N)=O)C2=O [17-DMAG, 17-dimethylaminoethylamino-17-demethoxy-geldanamycin]
IC50 ([1]; mesenchymal-like cell lines): 0.117 µM
IC50 [2, 16]: 0.081 µM
IC50 ([3]; LAR cell lines): 0.016 µM

Structure (SMILES): C[C@@]1(C(=O)Nc2ccc(F)nc2)CCCN1c1nc(Nc2cc(C3CC3)n[nH]2)c2cccn2n1 [BMS-754807]
viability (half-maximal inhibitory concentration) across TNBC subtypes [4]: selectively inhibits viability of mesenchymal-like TNBC cell lines

Structure (SMILES): CS(=O)(=O)N1CCN(Cc2cc3nc(-c4cccc5[nH]ncc45)nc(N4CCOCC4)c3s2)CC1 [GDC-0941]
caspase 3/7 activation [5]: caused caspase activation
activated AKT [6]: decreased activated AKT
cell aggregate size and viability [7]: decreased cell aggregate size and viability
viability, single agent [8]: displayed efficacy
sub-G1 fraction ([9]; 48 h, alone): higher sub-G1 fraction

Structure (SMILES): Cc1c(CN2CCN(C(=O)[C@H](C)O)CC2)sc2c(N3CCOCC3)nc(-c3cnc(N)nc3)nc12 [GDC-0980]
caspase 3/7 activation [5]: caused caspase activation
tumor growth [10]: significantly decreased tumor growth
activated AKT [6]: decreased activated AKT
AR levels ([6]; alone): decreased AR levels
mTOR activity as measured by levels of phosphorylated S6 ([6]; compared with GDC-0941): more effective at decreasing mTOR activity
cell aggregate size and viability [7]: decreased cell aggregate size and viability
viability, single agent [8]: displayed efficacy
sub-G1 fraction ([9]; 48 h, alone): higher sub-G1 fraction

Structure (SMILES): Cn1c(=O)n(-c2ccc(C(C)(C)C#N)cc2)c2c3cc(-c4cnc5ccccc5c4)ccc3ncc21 [NVP-BEZ235]
tumor growth [10]: significantly decreased tumor growth
IC50 ([1]; Homo sapiens, mesenchymal-like cell lines): 0.044 µM
sensitivity (viability) ([11]; TNBC cell lines with activated PI3K/AKT signaling due to PIK3CA mutations or PTEN deficiency): highly sensitive
IC50 [2, 16]: 0.116 µM
IC50 ([2]; Homo sapiens, 72 h, read-out: average IC50): 0.201 µM
IC50 ([3]; Homo sapiens, LAR cell lines): 0.037 µM
xenograft tumor response [12]: partial response or complete

Structure (SMILES): C[C@]1(O)C[C@@H](c2nc(-c3ccc4ccc(-c5ccccc5)nc4c3)c3c(N)nccn32)C1 [OSI-906]
viability (half-maximal inhibitory concentration) across TNBC subtypes [4]: selectively inhibits viability of mesenchymal-like TNBC cell lines

Structure (SMILES): C[C@@H](Oc1cc(-c2cnn(C3CCNCC3)c2)cnc1N)c1c(Cl)ccc(F)c1Cl [PF2341066]
viability (half-maximal inhibitory concentration) across TNBC subtypes [4]: selectively inhibits viability of mesenchymal-like TNBC cell lines

Structure (SMILES): COc1cccc2c1C(=O)c1c(O)c3c(c(O)c1C2=O)C[C@@](O)(C(=O)CO)C[C@@H]3O[C@H]1C[C@H](N)[C@H](O)[C@H](C)O1 [adriamycin]
caspase 3/7 activation [5]: robust caspase activation

Structure (SMILES): CC(O)(CS(=O)(=O)c1ccc(F)cc1)C(=O)Nc1ccc(C#N)c(C(F)(F)F)c1 (centres unmarked) [bicalutamide]
IC50 ([1]; Homo sapiens, subset of mesenchymal-like cell lines that express low levels of AR (HS578T, BT549, CAL-51, MDA-MB-231)): 361 µM
IC50 ([11]; Homo sapiens, majority of TNBC cell lines, read-out: IC50 not achieved using the highest dose): > 500 µM
IC50 ([2]; Homo sapiens, 72 h, read-out: IC50): > 600 µM
IC50 ([3]; Homo sapiens, LAR lines): 227 µM
sub-G1 fraction ([9]; 48 h after treatment, increase from 5.25%): 18.44%

Structure (SMILES): Cc1nc(Nc2ncc(C(=O)Nc3c(C)cccc3Cl)s2)cc(N2CCN(CCO)CC2)n1 [dasatinib]
IC50 ([1]; Homo sapiens, mesenchymal-like subtypes (M and MSL)): 22 µM
IC50 ([3]; Homo sapiens, LAR lines): 88 µM

IC50 [13]: > 100 µM
IC50 [14]: > 100 µM
IC50 [15]: 14 µM
Structure (SMILES): O=C(c1cc(Cc2n[nH]c(=O)c3ccccc23)ccc1F)N1CCN(C(=O)C2CC2)CC1 [olaparib]

Structure (SMILES): CNC(=O)c1cc(Oc2ccc(NC(=O)Nc3ccc(Cl)c(C(F)(F)F)c3)cc2)ccn1 [sorafenib]
viability (half-maximal inhibitory concentration) across TNBC subtypes [4]: selectively inhibits viability of mesenchymal-like TNBC cell lines

IC50 [13]: > 30 µM
IC50 [14]: 4 µM
IC50 [15]: 18 µM
Structure (SMILES): C[C@]1(c2nc3c(C(N)=O)cccc3[nH]2)CCCN1 [veliparib]
